Source: patent publication US20250090614A1, “COMPOSITIONS AND METHODS FOR IMPROVING LUNG FUNCTION” (priority 2023, published 2025)

Assays:
old C57b1/6 mice [1] = experiment: Minute ventilation by whole-body plethysmography in aged mice; type: in vivo, mouse; settings: aged C57BL/6 mice, 25 mg/kg p.o. each substance, 90 days
Description: The experiments were performed in old C57b1/6 mice (28-30 weeks). Table 1 discloses the groups of mice used for the experimentation. C57BL/6 mice were bred and naturally aged in a pathogen-free colony. Mice were group-housed six per cage for the treatment regimen and maintained on a 12-hr light-dark schedule with ad libitum access to food and water. All experiments were designed according to the principles of animal use for gerontological research (Miller, R. A., & Nadon, N. L. (2000). Principles of animal use for gerontological research. Journals of Gerontology. Series A, Biological Sciences and Medical Sciences, 55, B117-B123) [table] The above test substances were administered to the mice for a period of 90 days. […] The respiratory muscle function in the study animals was assessed by estimating the Tidal Volume, Minute ventilation, Transdiaphragmatic pressure ([…]) and Respiratory rate. […] In the present study, ventilatory parameters were measured in awake mice during eupnoea (spontaneous breathing of room air) using a whole-body plethysmography system. […] Recordings were taken after 10 min of acclimatization and recorded for one hour. Recorded parameters included tidal volume and minute ventilation Minute ventilation-Minute ventilation is the amount of air inhaled or exhaled from a person's lungs in one minute is an important measurement that's related to tidal volume. […]

old C57b1/6 mice [2] = experiment: Tidal volume by whole-body plethysmography in aged mice; type: in vivo, mouse; settings: aged C57BL/6 mice, 25 mg/kg p.o. each substance, 90 days
Description: The experiments were performed in old C57b1/6 mice (28-30 weeks). Table 1 discloses the groups of mice used for the experimentation. C57BL/6 mice were bred and naturally aged in a pathogen-free colony. Mice were group-housed six per cage for the treatment regimen and maintained on a 12-hr light-dark schedule with ad libitum access to food and water. All experiments were designed according to the principles of animal use for gerontological research (Miller, R. A., & Nadon, N. L. (2000). Principles of animal use for gerontological research. Journals of Gerontology. Series A, Biological Sciences and Medical Sciences, 55, B117-B123) [table] The above test substances were administered to the mice for a period of 90 days. Rapamycin was used as a positive control. […] The respiratory muscle function in the study animals was assessed by estimating the Tidal Volume, Minute ventilation, Transdiaphragmatic pressure ([…]) and Respiratory rate. […] In the present study, ventilatory parameters were measured in awake mice during eupnoea (spontaneous breathing of room air) using a whole-body plethysmography system. […] Recordings were taken after 10 min of acclimatization and recorded for one hour. Recorded parameters included tidal volume and minute ventilation

[3] = Rapamycin 8 mg/kg p.o. positive control

O=C(/C=C/c1ccc(O)c(O)c1)O[C@H](Cc1ccc(O)c(O)c1)C(=O)O [Rosmarinic acid]
minute ventilation (old C57b1/6 mice [1]; versus old mice control): increase | minute ventilation, comparison between treatment groups (old C57b1/6 mice [1]; [3]): better improvement than control, and Rapamycin | tidal volume (old C57b1/6 mice [2]; versus old mice control): increased | tidal volume, comparison between treatment groups (old C57b1/6 mice [2]; [3]): better than control, and Rapamycin
